In US20250154288A1, “CYTOTOXICITY TARGETING CHIMERAS FOR C-C CHEMOKINE RECEPTOR 2-EXPRESSING CELLS” (GLAXOSMITHKLINE INTELLECTUAL PROPERTY DEVELOPMENT LIMITED, priority 2022, published 2025):
Counter-ions that a name gives are not always drawn.

Assays:
[1] = molecular target: T1, CHOK1 cells engineered to overexpress human CCR2 (Homo sapiens, UniProt P41597); experiment: Antibody Dependent Cellular Cytotoxicity (ADCC) Reporter Assay; format: cell-based; conditions: with anti-cotinine antibody (human IgG1 Fc, S239D/I332E); Jurkat FcγRIIIa NFAT-luciferase reporter cells; average if several runs; read-out: ADCC Reporter Assay pEC50 (converted)
T1 construct: expressed in transfected cells; host or cells: CHOK1
Method: An antibody dependent cellular cytoxocity reporter assay was conducted using the following four assay components: (i) ARM compound of Formula (I) targeting CCR2 (concentrations ranging from 1 pM to 10 μM) (ii) anti-cotinine antibody having a heavy chain sequence of SEQ ID NO: 11 and a light chain sequence of SEQ ID NO: 12 (rabbit variable region with human IgG1 Fc domain containing a DE mutation (S239D/I332E)) (concentrations ranging from 0.01 μg/mL to 200 μg/mL); (iii) target cells: CHOK1 cells engineered to overexpress either human CCR2 (typically 1000-20,000 cells per well) and (iv) reporter cells: Jurkat cells engineered to express FcγRIIIa with the reporter gene luciferase under the control of the NFAT promoter (typically 3000-75,000 cells per well). Reagents were combined in a final volume of 20 μL in a 384-well tissue culture treated plate. All four assay components were incubated together for about 12-18 hours. Thereafter, BioGlo Detection reagent (Promega) was added to the wells to lyse the cells and provide a substrate for the luciferase reporter protein. Luminescence signal was measured on a microplate reader and signal:background was calculated by dividing the signal of a test well by the signal obtained when no heterobivalent compound of Formula (I) was added. EC50 calculations were done using Graphpad Prism Software, specifically a nonlinear regression curve fit (Y=Bottom+(Top−Bottom)/(1+10 ^((Log EC50−X)*HillSlope))).
ARMs compounds of Formula (I) of the invention were tested for ADCC activity in the above assay in or more experimental runs and the results are shown in Table 3 below. Potency of the compounds of Formula (I) of the invention is reported as a pEC50 value. The pEC50 value is the negative log of the EC50 value, wherein the EC50 value is the half maximal effective concentration measured in molar (M). For compounds tested in more than one experimental run, the pEC50 value is reported as an average.

[2] = molecular target: human alpha1 nicotinic acetylcholine (nACh) receptor (Homo sapiens, UniProt P02708+Q07001); experiment: Nicotinic Acetylcholine Receptor Antagonism Assay (IONFlux automated patch clamp); format: cell-based; conditions: for IC50: antagonism of nAChR stimulated with acetylcholine, average if several runs; for Emax at 100 µM: maximum percentage antagonism at Maximum Concentration of Compound Tested 100 μM
Method: Cells expressing human alpha1 nicotinic acetylcholine (nACh) receptor (nAChR) were washed and dissociated using Trypsin containing buffer. Cells were then washed and seeded at a density of 3-5 million cells/mL and allowed to grow for 3 days. Then, 60-80 μL of cells were added to plates and incubated with dose response of an ARM compound of Formula (I) with a top concentration of either 10 μM or 100 μM. The receptor was then stimulated via addition of acetylcholine (ACh) and activation of the receptor was monitored via the IONFlux automated patch clamp system. IonFlux Data Analyzer software was utilized to perform leak subtraction and measure (min) peak current amplitude.
Data processing: (1) Current values recorded for vehicle only applications in individual traps/patterns were subtracted from corresponding current amplitude values for control, test article and control+test article. (2) Control response was calculated as % of the average response of the 3rd out of total 3 ACh (10 mM) applications alone. In rare situations, if the 3rd ACh response was obscured due to technical artifacts, the 2nd and/or 1st ACh (10 mM) application was considered as control. The peak current amplitude generated in the presence of each test article concentration was then used to calculate the % inhibition as compared to control response (10 mM ACh alone). These estimates were further corrected for vehicle response and run down corrected by normalizing with time matched control responses (10 mM ACh alone). The corrected percentages were then fit with a non-linear function in GraphPad Prism 6 (or later versions) to determine the IC50.
Exclusion criteria: (i) any n's with poor recording quality, (ii) control current amplitude <500 pA or (iii) significant outliers, as determined by the Grubbs' test.
ARMs compounds of Formula (I) of the invention were tested for antagonism of the nAChR in the above assay in […] experimental runs and the results are shown in Table 6 below. Antagonistic activity of the compounds of Formula (I) of the invention is reported as an IC50 value (half maximal inhibitory concentration) and the maximum percentage antagonism observed at the highest concentration of compound of Formula (I) tested, as indicated in Table 6. For compounds tested in more than one experimental run, the IC50 value is reported as an average.

human alpha1 nicotinic acetylcholine (nACh) receptor, sequence (P02708 21-457): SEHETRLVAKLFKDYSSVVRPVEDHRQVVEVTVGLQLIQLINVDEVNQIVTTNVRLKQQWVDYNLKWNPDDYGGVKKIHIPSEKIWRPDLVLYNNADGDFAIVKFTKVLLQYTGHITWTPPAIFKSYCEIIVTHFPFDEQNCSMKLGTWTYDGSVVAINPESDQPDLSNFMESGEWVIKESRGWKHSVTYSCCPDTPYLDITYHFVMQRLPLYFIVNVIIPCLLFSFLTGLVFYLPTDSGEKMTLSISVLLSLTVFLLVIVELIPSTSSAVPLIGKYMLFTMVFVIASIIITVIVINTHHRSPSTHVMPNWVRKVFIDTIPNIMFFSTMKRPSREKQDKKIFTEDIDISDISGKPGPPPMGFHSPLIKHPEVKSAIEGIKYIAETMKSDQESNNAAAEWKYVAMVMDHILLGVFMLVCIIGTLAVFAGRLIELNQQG
human alpha1 nicotinic acetylcholine (nACh) receptor, sequence (P11230 24-501 partner): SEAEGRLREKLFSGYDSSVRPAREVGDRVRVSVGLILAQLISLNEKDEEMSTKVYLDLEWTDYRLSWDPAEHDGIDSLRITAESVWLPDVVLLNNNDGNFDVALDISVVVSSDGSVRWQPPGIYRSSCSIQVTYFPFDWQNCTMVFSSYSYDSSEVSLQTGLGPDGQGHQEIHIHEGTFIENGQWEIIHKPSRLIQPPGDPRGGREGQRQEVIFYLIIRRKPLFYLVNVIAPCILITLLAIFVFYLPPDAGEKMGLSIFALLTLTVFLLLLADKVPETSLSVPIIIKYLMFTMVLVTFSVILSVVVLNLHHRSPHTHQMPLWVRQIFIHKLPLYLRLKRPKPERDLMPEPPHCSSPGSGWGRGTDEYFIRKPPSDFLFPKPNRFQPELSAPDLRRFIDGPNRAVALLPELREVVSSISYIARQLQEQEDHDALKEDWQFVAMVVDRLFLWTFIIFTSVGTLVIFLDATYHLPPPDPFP
human alpha1 nicotinic acetylcholine (nACh) receptor, sequence (Q07001 22-517): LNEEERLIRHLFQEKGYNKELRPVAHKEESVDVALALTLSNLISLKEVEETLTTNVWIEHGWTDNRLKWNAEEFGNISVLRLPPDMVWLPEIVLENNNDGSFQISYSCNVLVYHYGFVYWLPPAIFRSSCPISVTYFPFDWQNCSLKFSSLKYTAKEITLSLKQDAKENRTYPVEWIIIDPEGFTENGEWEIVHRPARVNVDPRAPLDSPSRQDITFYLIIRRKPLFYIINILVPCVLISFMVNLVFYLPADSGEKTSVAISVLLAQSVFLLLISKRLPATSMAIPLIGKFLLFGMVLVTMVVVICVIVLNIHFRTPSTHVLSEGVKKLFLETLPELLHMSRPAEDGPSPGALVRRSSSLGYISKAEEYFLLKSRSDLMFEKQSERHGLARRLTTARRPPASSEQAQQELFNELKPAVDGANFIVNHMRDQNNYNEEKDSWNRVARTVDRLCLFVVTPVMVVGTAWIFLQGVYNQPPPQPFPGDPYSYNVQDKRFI

In the case of `CO[C@@H]1COCC[C@@H]1N(CCCNC(=O)[C@H]1CC[C@H](NC(=O)CCCO[C@H]2CC[C@H](OCCNC(=O)[C@H]3CC(=O)N(C)[C@@H]3c3cccnc3)CC2)CC1)[C@@H]1CC[C@@](C(=O)N2CCc3ncc(C(F)(F)F)cc3C2)(C(C)C)C1` [Example 13, (2S,3S)-N-(2-(((1R,4S)-4-(4-(((1S,4R)-4-((3-(((1R,3S)-3-isopropyl-3-(3-(trifluoromethyl)-5,6,7,8-tetrahydro-1,6-naphthyridine-6-carbonyl)cyclopentyl)((3S,4S)-3-methoxytetrahydro-2H-pyran-4-yl)amino)propyl)carbamoyl)cyclohexyl)amino)-4-oxobutoxy)cyclohexyl)oxy)ethyl)-1-methyl-5-oxo-2-(pyridin-3-yl)pyrrolidine-3-carboxamide], the EC50 [1] is reported as 0.794 nM, the IC50 [2] is reported as greater than 100000 nM and the Emax at 100 µM ([2]; read-out: Maximum Response (%)) is reported as 37%.
Work on `CO[C@@H]1COCC[C@@H]1N[C@@H]1CC[C@](CCCNC(=O)[C@H]2CC[C@@H](NC(=O)CCCO[C@H]3CC[C@H](OCCNC(=O)[C@H]4CC(=O)N(C)[C@@H]4c4cccnc4)CC3)CC2)(C(=O)N2CCc3ncc(C(F)(F)F)cc3C2)C1` [Example 6, (2S,3S)-N-(2-(((1R,4S)-4-(4-(((1R,4S)-4-((3-((1S,3R)-3-(((3S,4S)-3-Methoxytetrahydro-2H-pyran-4-yl)amino)-1-(3-(trifluoromethyl)-5,6,7,8-tetrahydro-1,6-naphthyridine-6-carbonyl)cyclopentyl)propyl)carbamoyl)cyclohexyl)amino)-4-oxobutoxy)cyclohexyl)oxy)ethyl)-1-methyl-5-oxo-2-(pyridin-3-yl)pyrrolidine-3-carboxamide, Formic acid salt] yielded an EC50 [1] of 0.794 nM, an IC50 [2] greater than 100000 nM and an Emax at 100 µM ([2]; read-out: Maximum Response (%)) of 31%.
For `CO[C@@H]1COCC[C@@H]1N[C@@H]1CC[C@@](C(=O)N2Cc3cc(C(F)(F)F)cnc3[C@@H](NC(=O)CCOCCOCCOCCOCCOCCOCCOCCOCCOCCOCCOCCOCCNC(=O)[C@H]3CC(=O)N(C)[C@@H]3c3cccnc3)C2)(C(C)C)C1` (stereo in doubt) [Example 24, (2S,3S)-N-(39-(((S)-6-((1S,3R)-1-Isopropyl-3-(((3S,4S)-3-methoxytetrahydro-2H-pyran-4-yl)amino)cyclopentane-1-carbonyl)-3-(trifluoromethyl)-5,6,7,8-tetrahydro-1,6-naphthyridin-8-yl)amino)-39-oxo-3,6,9,12,15,18,21,24,27,30,33,36-dodecaoxanonatriacontyl)-1-methyl-5-oxo-2-(pyridin-3-yl)pyrrolidine-3-carboxamide, 3Formic acid salt], the EC50 [1] was 1 nM.
`CO[C@@H]1COCC[C@@H]1N[C@@H]1CC[C@](CCCCNC(=O)CCOCCOCCO[C@H]2CC[C@H](OCCNC(=O)[C@H]3CC(=O)N(C)[C@@H]3c3cccnc3)CC2)(C(=O)N2CCc3ncc(C(F)(F)F)cc3C2)C1` [Example 21, (2S,3S)-N-(2-(((1r,4S)-4-(2-(2-(3-((4-((1S,3R)-3-(((3S,4S)-3-Methoxytetrahydro-2H-pyran-4-yl)amino)-1-(3-(trifluoromethyl)-5,6,7,8-tetrahydro-1,6-naphthyridine-6-carbonyl)cyclopentyl)butyl)amino)-3-oxopropoxy)ethoxy)ethoxy)cyclohexyl)oxy)ethyl)-1-methyl-5-oxo-2-(pyridin-3-yl)pyrrolidine-3-carboxamide, Formic acid salt] gave an EC50 [1] of 6.31 nM, an IC50 [2] greater than 10000 nM and an Emax at 10 µM ([2]; maximum percentage antagonism at Maximum Concentration of Compound Tested 10 μM, read-out: Maximum Response (%)) of 22%.
In the case of `CO[C@@H]1COCC[C@@H]1N[C@@H]1CC[C@](CCCCNC(=O)[C@H]2CC[C@@H](NC(=O)CCOCCOCCOCCNC(=O)[C@H]3CC(=O)N(C)[C@@H]3c3cccnc3)CC2)(C(=O)N2CCc3ncc(C(F)(F)F)cc3C2)C1` [Example 18, (2S,3S)-N-(2-(2-(2-(3-(((1R,4s)-4-((4-((1S,3R)-3-(((3S,4S)-3-Methoxytetrahydro-2H-pyran-4-yl)amino)-1-(3-(trifluoromethyl)-5,6,7,8-tetrahydro-1,6-naphthyridine-6-carbonyl)cyclopentyl)butyl)carbamoyl)cyclohexyl)amino)-3-oxopropoxy)ethoxy)ethoxy)ethyl)-1-methyl-5-oxo-2-(pyridin-3-yl)pyrrolidine-3-carboxamide, Formic acid salt], the EC50 [1] is reported as 5.01 nM.
`CO[C@@H]1COCC[C@@H]1N[C@@H]1CC[C@@](C(=O)N2Cc3cc(C(F)(F)F)cnc3[C@H](NC(=O)CCOCCOCCOCCOCCOCCOCCOCCOCCOCCOCCOCCOCCNC(=O)[C@H]3CC(=O)N(C)[C@@H]3c3cccnc3)C2)(C(C)C)C1` [Example 23, (2S,3S)—N-(39-(((R)-6-((1S,3R)-1-Isopropyl-3-(((3S,4S)-3-methoxytetrahydro-2H-pyran-4-yl)amino)cyclopentane-1-carbonyl)-3-(trifluoromethyl)-5,6,7,8-tetrahydro-1,6-naphthyridin-8-yl)amino)-39-oxo-3,6,9,12,15,18,21,24,27,30,33,36-dodecaoxanonatriacontyl)-1-methyl-5-oxo-2-(pyridin-3-yl)pyrrolidine-3-carboxamide, 3Formic acid salt] was tested, and the EC50 [1] was 0.398 nM.
Compound `CO[C@@H]1COCC[C@@H]1N[C@@H]1CC[C@](CCCNC(=O)[C@H]2CC[C@@H](NC(=O)CCCC(=O)NCCCC(=O)NCCCNC(=O)[C@H]3CC(=O)N(C)[C@@H]3c3cccnc3)CC2)(C(=O)N2CCc3ncc(C(F)(F)F)cc3C2)C1` [Example 16, N-((1R,4s)-4-((3-((1S,3R)-3-(((3S,4S)-3-Methoxytetrahydro-2H-pyran-4-yl)amino)-1-(3-(trifluoromethyl)-5,6,7,8-tetrahydro-1,6-naphthyridine-6-carbonyl)cyclopentyl)propyl)carbamoyl)cyclohexyl)-N-(4-((3-((2S,3S)-1-methyl-5-oxo-2-(pyridin-3-yl)pyrolidine-3-carboxamido)propyl)amino)-4-oxobutyl)glutaramide] has an EC50 [1] of 0.631 nM, an IC50 [2] of 71100 nM and an Emax at 100 µM ([2]; read-out: Maximum Response (%)) of 64%.
`CO[C@@H]1COCC[C@@H]1N[C@@H]1CC[C@](CCCCNC(=O)[C@H]2CC[C@H](NC(=O)CCCO[C@H]3CC[C@@H](OCCNC(=O)[C@H]4CC(=O)N(C)[C@@H]4c4cccnc4)CC3)CC2)(C(=O)N2CCc3ncc(C(F)(F)F)cc3C2)C1` [Example 10, (2S,3S)-N-(2-(((1S,4R)-4-(4-(((1S,4R)-4-((4-((1S,3R)-3-(((3S,4S)-3-Methoxytetrahydro-2H-pyran-4-yl)amino)-1-(3-(trifluoromethyl)-5,6,7,8-tetrahydro-1,6-naphthyridine-6-carbonyl)cyclopentyl)butyl)carbamoyl)cyclohexyl)amino)-4-oxobutoxy)cyclohexyl)oxy)ethyl)-1-methyl-5-oxo-2-(pyridin-3-yl)pyrrolidine-3-carboxamide] showed an EC50 [1] of 1.26 nM, an IC50 [2] greater than 100000 nM and an Emax at 100 µM ([2]; read-out: Maximum Response (%)) of 26%.
